Here are results for 20 molecules from patent US9328099B2, “Cyanomethylpyrazole carboxamides as janus kinase inhibitors” (Merck Sharp & Dohme Corp., priority 2011, dated 2016).

By IC50 is commonly meant the concentration that inhibits the measured activity by half.

Read-outs that look alike come from different tables or passages of the source.

One assay addresses JAK1 (Homo sapiens (Human), UniProt P23458). The experiment in a line: Jak Biochemical HTRF Assay, JAK1. To be noted: read-out: JAK1 IC50. From the text: (§1) Jak Biochemical HTRF Assay Protocol
(§2) Subsequent reagent additions employed an Agilent Bravo.
Background: Time-resolved FRET reads energy transfer from a long-lived donor to a nearby acceptor.

In another assay the target is JAK2 (Homo sapiens (Human), UniProt O60674). The experiment in a line: Jak Biochemical HTRF Assay, JAK2. As to conditions: HTRF biochemical assay, GST-tagged catalytic domain; top concentration tested […].
Excerpt: as §1, §2

[1] abbreviates: HTRF biochemical assay, GST-tagged catalytic domain, top concentration tested […].

Chain of JAK2 (O60674 849-1124): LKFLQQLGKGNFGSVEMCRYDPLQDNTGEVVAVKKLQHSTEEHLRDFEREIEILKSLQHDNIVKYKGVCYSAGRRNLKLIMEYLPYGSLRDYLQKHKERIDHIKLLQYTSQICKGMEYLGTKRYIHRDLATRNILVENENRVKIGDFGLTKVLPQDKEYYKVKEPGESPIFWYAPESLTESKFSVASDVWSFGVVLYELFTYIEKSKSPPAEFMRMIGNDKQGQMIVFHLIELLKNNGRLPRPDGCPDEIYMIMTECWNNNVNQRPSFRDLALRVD
Chain of JAK1 (P23458 875-1153): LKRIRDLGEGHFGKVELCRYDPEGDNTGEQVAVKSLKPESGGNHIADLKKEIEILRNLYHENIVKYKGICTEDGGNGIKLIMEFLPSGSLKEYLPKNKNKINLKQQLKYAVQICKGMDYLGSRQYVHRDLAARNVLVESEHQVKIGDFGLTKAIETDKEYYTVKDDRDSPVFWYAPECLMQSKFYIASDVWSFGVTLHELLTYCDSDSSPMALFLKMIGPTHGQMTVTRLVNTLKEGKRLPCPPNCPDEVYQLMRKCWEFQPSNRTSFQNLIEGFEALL

As to `COCC(C)OC(=O)N1CCC(CC#N)(n2cc(C(N)=O)c(Nc3ccc(F)cc3)n2)CC1` (stereo not shown) [Example 30-23, 1-methoxypropan-2-yl 4-{4-carbamoyl-3-[(4-fluorophenyl)amino]-1H-pyrazol-1-yl}-4-(cyanomethyl)piperidine-1-carboxylate], the IC50 is 0.002 µM on JAK1 (setting [1]) and 0.04 µM on JAK2.

With `N#CCC1(n2cc(C(N)=O)c(Nc3ccnc(F)c3)n2)CCC(Nc2ccc(Cl)cc2)CC1` (stereo not drawn) [Example 40-45, Cis or trans 1-{4-[(4-chlorophenyl)amino]-1-(cyanomethyl)cyclohexyl}-3-[(2-fluoropyridin-4-yl)amino]-1H-pyrazole-4-carboxamide], the figures for the IC50 at JAK1 (setting [1]) and at JAK2 were 0.038 µM and 0.77 µM, respectively.

Turning to `CN(C)CC(=O)N1CCC(CC#N)(n2cc(C(N)=O)c(Nc3ccccc3)n2)CC1` [Example 34-5, 1-[4-(cyanomethyl)-1-(N,N-dimethylglycyl)piperidin-4-yl]-3-(phenylamino)-1H-pyrazole-4-carboxamide], the figures for the IC50 on JAK1 (setting [1]) and at JAK2 were 0.013 µM and 0.318 µM, respectively.

On to `N#CCC1(n2cc(C(N)=O)c(Nc3ccnc(F)c3)n2)CCN(Cc2ccccc2C#N)CC1` [Example 22-72, 1-[1-(2-cyanobenzyl)-4-(cyanomethyl)piperidin-4-yl]-3-[(2-fluoropyridin-4-yl)amino]-1H-pyrazole-4-carboxamide], for which the figures for the IC50 on JAK1 (setting [1]) and against JAK2 were 0.0003 µM and 0.013 µM, respectively.

With `N#CCC1(n2cc(C(N)=O)c(Nc3ccc(F)cc3)n2)CCN(c2cccc(C#N)n2)CC1` [Example 3-18, 1-[4-(cyanomethyl)-1-(6-cyanopyridin-2-yl)piperidin-4-yl]-3-[(4-fluorophenyl)amino]-1H-pyrazole-4-carboxamide], the IC50 on JAK1 (setting [1]) was 0.003 µM; at JAK2 it was 0.089 µM.

With `N#CCC1(n2cc(C(N)=O)c(Nc3ccccc3)n2)CCN(C(=O)Cc2ccc(C(F)(F)F)cc2)CC1` [Example 34-30, 1-[4-(cyanomethyl)-1-{[4-(trifluoromethyl)phenyl]acetyl}piperidin-4-yl]-3-(phenylamino)-1H-pyrazole-4-carboxamide], the figures for the IC50 at JAK1 (setting [1]) and against JAK2 were 0.035 µM and 0.363 µM, respectively.

Turning to `CC(C)(C)COC(=O)N1CCC(CC#N)(n2cc(C(N)=O)c(Nc3ccccc3)n2)CC1` [Example 30-29, 2,2-dimethylpropyl 4-[4-carbamoyl-3-(phenylamino)-1H-pyrazol-1-yl]-4-(cyanomethyl)piperidine-1-carboxylate], the IC50 on JAK1 (setting [1]) was found to be 0.006 µM; on JAK2 it was 0.249 µM.

In the case of `CS(=O)(=O)c1ccc(Nc2nn(C3(CC#N)CN(C(=O)OC4CCOC4)C3)cc2C(N)=O)cc1` (stereo not shown) [Example 30-75, tetrahydrofuran-3-yl 3-(4-carbamoyl-3-{[4-(methylsulfonyl)phenyl]amino)-1H-pyrazol-1-yl)-3-(cyanomethyl)azetidine-1-carboxylate], the IC50 is 0.022 µM on JAK1 (setting [1]) and 0.221 µM at JAK2.

As for `CC1(COC(=O)N2CCC(CC#N)(n3cc(C(N)=O)c(Nc4ccc(F)cc4)n3)CC2)COC1` [Example 30-20, (3-methyloxetan-3-yl)methyl 4-{4-carbamoyl-3-[(4-fluorophenyl)amino]-1H-pyrazol-1-yl}-4-(cyanomethyl)piperidine-1-carboxylate], the values for the IC50 on JAK1 (setting [1]) and against JAK2 were 0.008 µM and 0.24 µM, respectively.

As to `N#CCC1(n2cc(C(N)=O)c(Nc3ccccc3)n2)CCN(C(=O)OCc2ccccc2)CC1` [Example 27-4, benzyl 4-[4-carbamoyl-3-(phenylamino)-1H-pyrazol-1-yl]-4-(cyanomethyl)piperidine-1-carboxylate], the IC50 on JAK1 (setting [1]) was 0.003 µM; at JAK2, 0.085 µM.

Take `N#CCC1(n2cc(C(N)=O)c(Nc3ccc(S(=O)(=O)C(F)F)cc3)n2)CCC(NC2CCCCC2)CC1` (stereo not drawn) [Example 40-57, Cis or trans 1-[1-(cyanomethyl)-4-(cyclohexylamino)cyclohexyl]-3-({4-[(difluoromethyl)sulfonyl]phenyl}amino)-1H-pyrazole-4-carboxamide]: the IC50 at JAK1 was 0.415 µM; at JAK2, above 1.5 µM.

For `N#CCC1(n2cc(C(N)=O)c(Nc3ccccc3)n2)CN(S(=O)(=O)c2ccco2)C1` [Example 37-17, 1-[3-(cyanomethyl)-1-(furan-2-ylsulfonyl)azetidin-3-yl]-3-(phenylamino)-1H-pyrazole-4-carboxamide], the IC50 at JAK1 (setting [1]) was found to be 0.095 µM; against JAK2 it was 0.247 µM.

Regarding `N#CCC1(n2cc(C(N)=O)c(Nc3ccccc3)n2)CN(C(=O)Nc2ccc(F)c(Cl)c2)C1` [Example 38-40, 1-{1-[(3-chloro-4-fluorophenyl)carbamoyl]-3-(cyanomethyl)azetidin-3-yl}-3-(phenylamino)-1H-pyrazole-4-carboxamide], the figures for the IC50 at JAK1 (setting [1]) and against JAK2 were 0.018 µM and 0.279 µM, respectively.

As to `N#CCC1(n2cc(C(N)=O)c(Nc3ccc(F)cc3)n2)CCN(c2cccnc2)CC1` [Example 3-30, 1-[4-(cyanomethyl)-1-pyridin-3-ylpiperidin-4-yl]-3-[(4-fluorophenyl)amino]-1H-pyrazole-4-carboxamide], the IC50 on JAK1 (setting [1]) came out at 0.0003 µM; at JAK2, 0.006 µM.

As for `N#CCC1(n2cc(C(N)=O)c(Nc3ccccc3)n2)CN(S(=O)(=O)C(F)(F)F)C1` [Example 37-18, 1-{3-(cyanomethyl)-1-[(trifluoromethyl)sulfonyl]azetidin-3-yl}-3-(phenylamino)-1H-pyrazole-4-carboxamide], the figures for the IC50 at JAK1 (setting [1]) and against JAK2 were 0.159 µM and 0.585 µM, respectively.

`CCCCNC(=O)N1CC(CC#N)(n2cc(C(N)=O)c(Nc3ccccc3)n2)C1` [Example 38-5, 1-[1-(butylcarbamoyl)-3-(cyanomethyl)azetidin-3-yl]-3-(phenylamino)-1H-pyrazole-4-carboxamide]: the half-maximal inhibitory concentration (IC50) came out at 0.004 µM at JAK1 (setting [1]) and 0.214 µM against JAK2.

As for `C[C@H]1C[C@](CC#N)(n2cc(C(N)=O)c(Nc3ccccc3)n2)CCN1C(=O)OC(C)(C)C` (racemic) [Example 2-10], the IC50 on JAK1 (setting [1]) turned out to be 0.002 µM; against JAK2, 0.021 µM.

As for `N#CCC1(n2cc(C(N)=O)c(Nc3ccc(S(=O)(=O)C(F)F)cc3)n2)CCC(NCC(F)F)CC1` (stereo not drawn) [Example 40-99, Cis or trans 1-{1-(cyanomethyl)-4-[(2,2-difluoroethyl)amino]cyclohexyl}-3-({4-[(difluoromethyl)sulfonyl]phenyl}amino)-1H-pyrazole-4-carboxamide], the figures for the IC50 at JAK1 (setting [1]) and at JAK2 were 0.506 µM and above 1.5 µM, respectively.

Regarding `CC(C)(O)C1CC(CN2CCC(CC#N)(n3cc(C(N)=O)c(Nc4ccnc(F)c4)n3)CC2)C1` (stereo not shown) [Example 22-24, 1-[4-(cyanomethyl)-1-{[3-(1-hydroxy-1-methylethyl)cyclobutyl]methyl}piperidin-4-yl]-3-[(2-fluoropyridin-4-yl)amino]-1H-pyrazole-4-carboxamide], the IC50 at JAK1 (setting [1]) was 0.1 µM; at JAK2 it was above 1.5 µM.

On to `Cc1noc(C)c1-c1ccc(Nc2nn(C3(CC#N)CCN(C(=O)OC(C)(C)C)CC3)cc2C(N)=O)cc1` [Example 14, tert-Butyl 4-(4-carbamoyl-3-{[4-(3,5-dimethylisoxazol-4-yl)phenyl]amino}-1H-pyrazol-1-yl)-4-(cyanomethyl)piperidine-1-carboxylate], for which the IC50 at JAK1 (setting [1]) came to 0.01 µM; against JAK2, 0.038 µM.
